# Results: PubChem BioAssay (NCI)
#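 Where inhibition never reached the appropriate level, the endpoint shown equals the highest concentration tested. Otherwise, values were interpolated linearly from a five-concentration, 48-hour dose response in 96-well plates. GI50: concentration for 50% inhibition of growth. TGI is the concentration that stops growth completely.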
# Experiments:
# Experiment in all cases: NCI anticancer screen, dose series, 48 h
# [1] = tested on: 786-0 renal
# [2] = tested on: A498 renal
# [3] = tested on: A549 NSCLC
# [4] = tested on: ACHN renal
# [5] = tested on: BT-549 breast
# [6] = tested on: CAKI-1 renal
# [7] = tested on: CCRF-CEM leukemia
# [8] = tested on: COLO 205 colon
# [9] = tested on: DU-145 prostate
# [10] = tested on: EKVX NSCLC
# [11] = tested on: HCC-2998 colon
# [12] = tested on: HCT-116 colon
# [13] = tested on: HCT-15 colon
# [14] = tested on: HL-60(TB) leukemia
# [15] = tested on: HOP-62 NSCLC
# [16] = tested on: HOP-92 NSCLC
# [17] = tested on: HS 578T breast
# [18] = tested on: HT29 colon
# [19] = tested on: IGROV1 ovarian
# [20] = tested on: K-562 leukemia
# [21] = tested on: KM12 colon
# [22] = tested on: LOX IMVI melanoma
# [23] = tested on: M14 melanoma
# [24] = tested on: MALME-3M melanoma
# [25] = tested on: MCF7 breast
# [26] = tested on: MDA-MB-231 breast
# [27] = tested on: MDA-MB-435
# [28] = tested on: MDA-MB-468 breast
# [29] = tested on: MOLT-4 leukemia
# [30] = tested on: NCI-H226 lung
# [31] = tested on: NCI-H23 lung
# [32] = tested on: NCI-H460 lung
# [33] = tested on: NCI-H522 lung
# [34] = tested on: OVCAR-3 ovarian
# [35] = tested on: OVCAR-4 ovarian
# [36] = tested on: OVCAR-5 ovarian
# [37] = tested on: OVCAR-8 ovarian
# [38] = tested on: PC-3 prostate
# [39] = tested on: RPMI-8226 leukemia
# [40] = tested on: RXF 393 renal
# [41] = tested on: SF-268 CNS
# [42] = tested on: SF-295 CNS
# [43] = tested on: SF-539 CNS
# [44] = tested on: SK-MEL-2 melanoma
# [45] = tested on: SK-MEL-28 melanoma
# [46] = tested on: SK-MEL-5 melanoma
# [47] = tested on: SK-OV-3 ovarian
# [48] = tested on: SN12C renal
# [49] = tested on: SNB-19 CNS
# [50] = tested on: SNB-75 CNS
# [51] = tested on: SR leukemia
# [52] = tested on: SW-620 colon
# [53] = tested on: T-47D breast
# [54] = tested on: TK-10 renal
# [55] = tested on: U251 CNS
# [56] = tested on: UACC-257 melanoma
# [57] = tested on: UACC-62 melanoma
# [58] = tested on: UO-31 renal
# [59] = tested on: NCI/ADR-RES ovarian
smiles,measurement,setting,value
CC(=O)Oc1ccccc1C(=O)[Se]C(=NC1CCCCC1)NC1CCCCC1,GI50,[1],1.76 µM
same,TGI,[1],3.16 µM
same,GI50,[2],2.31 µM
same,TGI,[2],6.73 µM
same,GI50,[3],3.01 µM
same,TGI,[3],10.6 µM
same,GI50,[4],1.79 µM
same,TGI,[4],3.27 µM
same,GI50,[5],1.64 µM
same,TGI,[5],3.07 µM
same,GI50,[6],1.69 µM
same,TGI,[6],3.11 µM
same,GI50,[7],2.03 µM
same,TGI,[7],5.05 µM
same,GI50,[8],1.95 µM
same,TGI,[8],4.36 µM
same,GI50,[9],1.79 µM
same,TGI,[9],3.28 µM
same,GI50,[10],1.65 µM
same,TGI,[10],3.06 µM
same,GI50,[11],1.72 µM
same,TGI,[11],3.12 µM
same,GI50,[12],1.9 µM
same,TGI,[12],3.73 µM
same,GI50,[13],1.78 µM
same,TGI,[13],3.56 µM
same,GI50,[14],1.95 µM
same,TGI,[14],4.71 µM
same,GI50,[15],1.7 µM
same,TGI,[15],3.36 µM
same,GI50,[16],1.81 µM
same,TGI,[16],4.23 µM
same,GI50,[17],2.05 µM
same,TGI,[17],5.37 µM
same,GI50,[18],2.19 µM
same,TGI,[18],5.48 µM
same,GI50,[19],1.76 µM
same,TGI,[19],3.17 µM
same,GI50,[20],2.09 µM
same,TGI,[20],5.21 µM
same,GI50,[21],1.83 µM
same,TGI,[21],3.39 µM
same,GI50,[22],1.65 µM
same,TGI,[22],3.1 µM
same,GI50,[23],1.69 µM
same,TGI,[23],3.19 µM
same,GI50,[24],1.73 µM
same,TGI,[24],3.2 µM
same,GI50,[25],1.82 µM
same,TGI,[25],3.4 µM
same,GI50,[26],1.85 µM
same,TGI,[26],3.58 µM
same,GI50,[27],1.79 µM
same,TGI,[27],3.33 µM
same,GI50,[28],1.75 µM
same,TGI,[28],3.32 µM
same,GI50,[29],2.39 µM
same,TGI,[29],5.56 µM
same,GI50,[30],1.6 µM
same,TGI,[30],3.21 µM
same,GI50,[31],1.66 µM
same,TGI,[31],3.2 µM
same,GI50,[32],1.98 µM
same,TGI,[32],4.37 µM
same,GI50,[33],1.56 µM
same,TGI,[33],3.03 µM
same,GI50,[34],1.84 µM
same,TGI,[34],3.39 µM
same,GI50,[35],1.74 µM
same,TGI,[35],3.3 µM
same,GI50,[36],1.69 µM
same,TGI,[36],3.23 µM
same,GI50,[37],1.72 µM
same,TGI,[37],3.14 µM
same,GI50,[38],1.83 µM
same,TGI,[38],3.62 µM
same,GI50,[39],2.16 µM
same,TGI,[39],5.39 µM
same,GI50,[40],1.67 µM
same,TGI,[40],3.04 µM
same,GI50,[41],2.33 µM
same,TGI,[41],5.68 µM
same,GI50,[42],1.61 µM
same,TGI,[42],3.16 µM
same,GI50,[43],1.67 µM
same,TGI,[43],3.04 µM
same,GI50,[44],1.64 µM
same,TGI,[44],3.15 µM
same,GI50,[45],1.76 µM
same,TGI,[45],3.27 µM
same,GI50,[46],1.63 µM
same,TGI,[46],3.06 µM
same,GI50,[47],1.69 µM
same,TGI,[47],3.18 µM
same,GI50,[48],1.73 µM
same,TGI,[48],3.12 µM
same,GI50,[49],1.67 µM
same,TGI,[49],3.1 µM
same,GI50,[50],1.37 µM
same,TGI,[50],2.78 µM
same,GI50,[51],1.96 µM
same,TGI,[51],4.71 µM
same,GI50,[52],1.79 µM
same,TGI,[52],3.37 µM
same,GI50,[53],2 µM
same,TGI,[53],5.17 µM
same,GI50,[54],1.64 µM
same,TGI,[54],3.03 µM
same,GI50,[55],1.72 µM
same,TGI,[55],3.36 µM
same,GI50,[56],1.68 µM
same,TGI,[56],3.15 µM
same,GI50,[57],1.67 µM
same,TGI,[57],3.29 µM
same,GI50,[58],1.62 µM
same,TGI,[58],2.97 µM
Cc1ccccc1[C@H]1C(C(=O)c2ccc(Cl)cc2)C2(N[C@@H]1c1ccccc1)C(=O)Nc1ccc(Cl)cc12 (some centres not stated),GI50,[1],5.75 µM
same,TGI,[1],11.1 µM
same,GI50,[2],6.28 µM
same,TGI,[2],12.5 µM
same,GI50,[3],5.63 µM
same,TGI,[3],11.5 µM
same,GI50,[4],5.89 µM
same,TGI,[4],11.1 µM
same,GI50,[5],5.49 µM
same,TGI,[5],10.9 µM
same,GI50,[6],4.23 µM
same,TGI,[6],9.47 µM
same,GI50,[7],9.04 µM
same,TGI,[7],36.8 µM
same,GI50,[8],5.56 µM
same,TGI,[8],10.9 µM
same,GI50,[9],6.11 µM
same,TGI,[9],12.7 µM
same,GI50,[10],4.15 µM
same,TGI,[10],8.85 µM
same,GI50,[11],5.38 µM
same,TGI,[11],10.5 µM
same,GI50,[12],5.04 µM
same,TGI,[12],10.2 µM
same,GI50,[13],5.56 µM
same,TGI,[13],11.1 µM
same,GI50,[14],9.94 µM
same,TGI,[14],24.2 µM
same,GI50,[15],5.88 µM
same,TGI,[15],11.3 µM
same,GI50,[16],4.07 µM
same,TGI,[16],9.11 µM
same,GI50,[17],6.79 µM
same,TGI,[17],39.5 µM
same,GI50,[18],5.58 µM
same,TGI,[18],11.4 µM
same,GI50,[19],4.58 µM
same,TGI,[19],9.64 µM
same,GI50,[20],7.49 µM
same,TGI,[20],36.4 µM
same,GI50,[21],6.06 µM
same,TGI,[21],13.5 µM
same,GI50,[22],5.45 µM
same,TGI,[22],10.5 µM
same,GI50,[23],6.5 µM
same,TGI,[23],12.6 µM
same,GI50,[24],5.63 µM
same,TGI,[24],10.9 µM
same,GI50,[25],4.47 µM
same,TGI,[25],9.78 µM
same,GI50,[26],5.25 µM
same,TGI,[26],10.4 µM
same,GI50,[27],6.04 µM
same,TGI,[27],12.1 µM
same,GI50,[28],4.98 µM
same,TGI,[28],10.1 µM
same,GI50,[29],4.93 µM
same,TGI,[29],16.9 µM
same,GI50,[30],5.47 µM
same,TGI,[30],11.2 µM
same,GI50,[31],5.54 µM
same,TGI,[31],11.1 µM
same,GI50,[32],7.5 µM
same,TGI,[32],19.5 µM
same,GI50,[33],5.52 µM
same,TGI,[33],10.8 µM
same,GI50,[59],5.64 µM
same,TGI,[59],11.4 µM
same,GI50,[34],3.68 µM
same,TGI,[34],9.82 µM
same,GI50,[35],5.74 µM
same,TGI,[35],13.7 µM
same,GI50,[36],5.39 µM
same,TGI,[36],10.6 µM
same,GI50,[37],6.41 µM
same,TGI,[37],14.5 µM
same,GI50,[38],4.02 µM
same,TGI,[38],10.6 µM
same,GI50,[39],8.18 µM
same,TGI,[39],30.2 µM
same,GI50,[40],1.89 µM
same,TGI,[40],7.25 µM
same,GI50,[41],4.74 µM
same,TGI,[41],12.1 µM
same,GI50,[42],5.21 µM
same,TGI,[42],10.2 µM
same,GI50,[43],6.2 µM
same,TGI,[43],11.7 µM
same,GI50,[44],5.31 µM
same,TGI,[44],10.5 µM
same,GI50,[45],6.26 µM
same,TGI,[45],11.8 µM
same,GI50,[46],6.09 µM
same,TGI,[46],11.7 µM
same,GI50,[47],5.88 µM
same,TGI,[47],12.2 µM
same,GI50,[48],4.96 µM
same,TGI,[48],9.93 µM
same,GI50,[49],6.07 µM
same,TGI,[49],11.6 µM
same,GI50,[50],4.37 µM
same,TGI,[50],12.6 µM
same,GI50,[52],6.97 µM
same,TGI,[52],20 µM
same,GI50,[53],3.66 µM
same,TGI,[53],8.83 µM
same,GI50,[54],5.3 µM
same,TGI,[54],10.6 µM
same,GI50,[55],5.85 µM
same,TGI,[55],11.7 µM
same,GI50,[56],5.82 µM
same,TGI,[56],11.6 µM
same,GI50,[57],4.6 µM
same,TGI,[57],9.56 µM
same,GI50,[58],4.48 µM
same,TGI,[58],9.28 µM
